What was measured:
p27-KID = target: T1, p27-KID (Homo sapiens, UniProt P46527); experiment: NMR 2D 1H-15N in-phase HSQC titration, binding affinity for p27:small molecule interactions; settings: sixteen-point titration, 100 μM 15N-p27-KID, inhibitor 0-3 mM
T1 construct: 6xHis (N, cleaved yes); made in house; host or cells: E. coli (pET28a)
Method: 1D and 2D NMR analysis of these molecules led to the identification of 15 additional p27-D2-binding compounds (six with Group 1-like binding features and nine with Group 2-like features; Suppl. Fig. 3b and Suppl. Table 1b).
Sixteen point titrations of representative fragment hits from Group 1 and Group 2 (SJ572710 and SJ572403, respectively) into ^15N-p27-KID (100 μM) were recorded using an adopted “in-phase” 2D ^1H-^15N HISQC with proton decoupling during ^15N chemical shift labeling achieved with a WALTZ16 composite pulse with an amplitude of 7.1 kHz[54][55]. All experiments were collected at a Bruker Avance 800 MHz spectrometer equipped with TCI cryogenic gradient probe. The following molar ratios of ^15N-p27-KID (100 μM) to inhibitor were used: 1:0, 1:0.1, 1:1.5, 1:3, 1:4.5, 1:6, 1:7.5, 1:9, 1:10.5, 1:12, 1:15, 1:18, 1:21, 1:24, 1:27 and 1:30. Each spectrum was recorded with 256 (t1,max = 31.0 ms) and 1024 (t2,max = 106.5 ms) complex points in the ^15N and ^1H dimensions, respectively, with eight transients collected per point. The spectral resolution of the ^1H and ^15N dimensions was 2.4 and 1.7 Hz, respectively. […] The data was processed using the NMRPipe package[56] and analyzed using in-house scripts written in Python using the Scipy computing libraries and Mathematica (Wolfram Research). […]

p21-KID = target: T2, p21-KID (Homo sapiens, UniProt P38936); experiment: 2D 1H-15N HSQC NMR with p21-KID; format: binding; settings: 1 mM compound, 20 μM p21-KID, 298 K
T2 construct: made in house
T2 sequence (P38936 9-84 limits assumed): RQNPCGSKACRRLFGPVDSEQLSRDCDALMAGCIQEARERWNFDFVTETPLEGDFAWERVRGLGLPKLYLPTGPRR
Method: Figure 8 Interaction of p21-KID with representative p27 fragment hits.
Screening and validation NMR experiments were performed at 298 K (25 °C) using either a Varian Inova 600 MHz spectrometer equipped with a triple resonance (HCN) room temperature gradient probe or a Bruker Avance 600 MHz spectrometer equipped with TCI cryogenic gradient probe and a SampleJet sample changer. Fragment molecules were initially analyzed as pools of five molecules dissolved at 10 mM each in DMSO-D6. […] For initial fragment screening experiments, one-dimensional (1D) ^1H- and WaterLOGSY[35] NMR spectra were recorded for compound pools without and with protein. […] DMSO-D6 was added to maintain a constant concentration (2% vol/vol). […] Tryptophan and tyrosine, respectively, were titrated into ^15N-p27-KID (100 μM) up to 3 mM. […] 2D ^1H-^15N TROSY-HSQC NMR experiments with ^2H/^13C/^15N-p27-D2/Cdk2/cyclin A and SJ403 have been recorded at 308 K (35 °C). 2D ^1H-^15N HSQC experiments of representative fragment hits (1 mM of SJ319843, group 1 and SJ403, group 2, respectively) with ^15N-p21-KID (20 μM) were recorded at 298 K using a Bruker Avance 600 MHz spectrometer. NMR spectra were processed using Bruker Topspin software and analyzed using computer-aided resonance assignment (CARA) software.

p27-KID mutants [1] = target: T3, p27-KID mutants (Homo sapiens, UniProt P46527, Y88A); experiment: 2D NMR binding mapping with p27-KID mutants
T3 construct: 6xHis (N, cleaved yes); made in house; host or cells: E. coli (pET28a)
T3 sequence (P46527 22-105 Y88A): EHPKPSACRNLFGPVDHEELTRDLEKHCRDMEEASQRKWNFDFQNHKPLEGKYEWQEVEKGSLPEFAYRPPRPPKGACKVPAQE
Description: (§1) (Fig. 7a–c); these interaction sites are all within the Cdk2-binding D2 sub-domain. […] In fact, sub-domain D2 contains eight of the nine aromatic amino acids found within p27; a ninth, F33, is found within sub-domain D1 but […] to small molecules. Group 1 molecules caused the largest CSPs for residues F87, Y88 and Y89 within sub-region D2.3 and Group 2 molecules perturbed resonances for these residues as well as for residues W60, N61 (sub-region D2.1) and E75, W76 and Q77 (sub-region D2.2).
(§2) The p27 constructs were expressed in E. Coli with an N-terminal 6xHis affinity tag after sub-cloning into pET28a (Novagen) using established procedures. […]
(§3) Screening and validation NMR experiments were performed at 298 K (25 °C) using either a Varian Inova 600 MHz spectrometer equipped with a triple resonance (HCN) room temperature gradient probe or a Bruker Avance 600 MHz spectrometer equipped with TCI cryogenic gradient probe and a SampleJet sample changer. Fragment molecules were initially analyzed as pools of five molecules dissolved at 10 mM each in DMSO-D6. […] NMR spectra were recorded for compound pools without and with protein. […] 2D ^1H-^15N TROSY-HSQC NMR experiments with ^2H/^13C/^15N-p27-D2/Cdk2/cyclin A and SJ403 have been recorded at 308 K (35 °C). […] NMR spectra were processed using Bruker Topspin software and analyzed using computer-aided resonance assignment (CARA) software.

p27-KID mutants [2] = experiment: 2D NMR binding mapping with p27-KID mutants; parameters: species or system human
Description: as §1, §2, §3

T1 sequence (P46527 22-105): as the sequence (P46527 22-105 Y88A) above, with A67Y counted along it

Kd (p27-KID): 2200 ± 300 µM
Compound: CCn1c(C)c(C)n2c3c(=O)n(C)c(=O)n(C)c3nc12 [SJ403]
interaction with p21-KID (1H chemical shift perturbations) (p21-KID): interacted with residues near W49 and W65 of p21 | CSPs with Y88 to A p27-KID mutant (p27-KID mutants [1]): caused CSPs near the two W residues (W60 or W76) but not within the F87A88Y89 region | CSPs with doubly mutated p27-KID variants (W60A-W76A, W60F-W76F) (p27-KID mutants [2]): only very weak CSPs within the F87YY89 aromatic cluster
